Reference: ChEMBL document CHEMBL5325403, “Benzenesulfonyl thiazoloimines as unique multitargeting antibacterial agents towards Enterococcus faecalis” (Eur J Med Chem, 2023)
In brackets after ≈: the same amount, converted by molar mass.

Assays:
Type in all cases: functional
Pseudomonas aeruginosa [1] = experiment: Antibacterial activity against Pseudomonas aeruginosa assessed as inhibition of bacterial growth by continuous dilution method
Escherichia coli [2] = experiment: Antibacterial activity against Escherichia coli ATCC 25922 assessed as inhibition of bacterial growth by continuous dilution method
Staphylococcus aureus [3] = experiment: Antibacterial activity against Staphylococcus aureus ATCC 29213 assessed as inhibition of bacterial growth by continuous dilution method
Pseudomonas aeruginosa [4] = experiment: Antibacterial activity against Pseudomonas aeruginosa ATCC 27853 assessed as inhibition of bacterial growth by continuous dilution method
Staphylococcus aureus [5] = experiment: Antibacterial activity against Staphylococcus aureus assessed as inhibition of bacterial growth by continuous dilution method
Enterococcus faecalis = experiment: Antibacterial activity against Enterococcus faecalis assessed as inhibition of bacterial growth by continuous dilution method
Escherichia coli [6] = experiment: Antibacterial activity against Escherichia coli assessed as inhibition of bacterial growth by continuous dilution method
Klebsiella pneumoniae = experiment: Antibacterial activity against Klebsiella pneumoniae assessed as inhibition of bacterial growth by continuous dilution method
Staphylococcus aureus [7] = experiment: Antibacterial activity against Staphylococcus aureus ATCC 25923 assessed as inhibition of bacterial growth by continuous dilution method
Acinetobacter baumannii = experiment: Antibacterial activity against Acinetobacter baumannii assessed as inhibition of bacterial growth by continuous dilution method
Staphylococcus aureus [8] = experiment: Antibacterial activity against methicillin-resistant Staphylococcus aureus N315 assessed as inhibition of bacterial growth by continuous dilution method

SMILES	MIC (Pseudomonas aeruginosa [1]) [µg/mL]	MIC (Escherichia coli [2]) [µg/mL]	MIC (Staphylococcus aureus [3]) [µg/mL]	MIC (Pseudomonas aeruginosa [4]) [µg/mL]	MIC (Staphylococcus aureus [5]) [µg/mL]	MIC (Enterococcus faecalis) [µg/mL]	MIC (Escherichia coli [6]) [µg/mL]	MIC (Klebsiella pneumoniae) [µg/mL]	MIC (Staphylococcus aureus [7]) [µg/mL]	MIC (Acinetobacter baumannii) [µg/mL]	MIC (Staphylococcus aureus [8]) [µg/mL]
CC(=O)Nc1ccc(S(=O)(=O)/C(=C\c2nccs2)C(=O)c2nccs2)cc1	128 (≈ 305 µM)	128 (≈ 305 µM)	64 (≈ 153 µM)	128 (≈ 305 µM)	32 (≈ 76.3 µM)	16 (≈ 38.1 µM)	16 (≈ 38.1 µM)	16 (≈ 38.1 µM)	4 (≈ 9.53 µM)	128 (≈ 305 µM)	8 (≈ 19.1 µM)
COc1ccc(/C=C(/C(=O)c2nccs2)S(=O)(=O)c2ccc(NC(C)=O)cc2)cc1	128 (≈ 289 µM)	64 (≈ 145 µM)	16 (≈ 36.2 µM)	128 (≈ 289 µM)	32 (≈ 72.3 µM)	4 (≈ 9.04 µM)	32 (≈ 72.3 µM)	32 (≈ 72.3 µM)	32 (≈ 72.3 µM)	128 (≈ 289 µM)	4 (≈ 9.04 µM)
Nc1ccc(S(=O)(=O)C/C(=N/OCc2ccc(Cl)cc2)c2nccs2)cc1	64 (≈ 152 µM)	8 (≈ 19 µM)	128 (≈ 303 µM)	8 (≈ 19 µM)	64 (≈ 152 µM)	8 (≈ 19 µM)	16 (≈ 37.9 µM)	16 (≈ 37.9 µM)	64 (≈ 152 µM)	64 (≈ 152 µM)	64 (≈ 152 µM)
CCCCCCO/N=C(/CS(=O)(=O)c1ccc(N)cc1)c1nccs1	16 (≈ 41.9 µM)	16 (≈ 41.9 µM)	64 (≈ 168 µM)	16 (≈ 41.9 µM)	32 (≈ 83.9 µM)	8 (≈ 21 µM)	16 (≈ 41.9 µM)	32 (≈ 83.9 µM)	64 (≈ 168 µM)	64 (≈ 168 µM)	128 (≈ 335 µM)
CC(=O)Nc1ccc(S(=O)(=O)C/C(=N/OCc2ccc(Cl)cc2)c2nccs2)cc1	64 (≈ 138 µM)	8 (≈ 17.2 µM)	64 (≈ 138 µM)	32 (≈ 69 µM)	128 (≈ 276 µM)	64 (≈ 138 µM)	64 (≈ 138 µM)	32 (≈ 69 µM)	64 (≈ 138 µM)	128 (≈ 276 µM)	32 (≈ 69 µM)
CCO/N=C(/CS(=O)(=O)c1ccc(N)cc1)c1nccs1	64 (≈ 197 µM)	32 (≈ 98.3 µM)	64 (≈ 197 µM)	32 (≈ 98.3 µM)	256 (≈ 787 µM)	64 (≈ 197 µM)	16 (≈ 49.2 µM)	32 (≈ 98.3 µM)	64 (≈ 197 µM)	128 (≈ 393 µM)	256 (≈ 787 µM)
CC(=O)Nc1ccc(S(=O)(=O)C/C(=N/NC(=O)c2ccccc2O)c2nccs2)cc1	256 (≈ 558 µM)	64 (≈ 140 µM)	256 (≈ 558 µM)	16 (≈ 34.9 µM)	128 (≈ 279 µM)	128 (≈ 279 µM)	128 (≈ 279 µM)	128 (≈ 279 µM)	64 (≈ 140 µM)	128 (≈ 279 µM)	64 (≈ 140 µM)
C#CCO/N=C(/CS(=O)(=O)c1ccc(N)cc1)c1nccs1	64 (≈ 191 µM)	32 (≈ 95.4 µM)	64 (≈ 191 µM)	32 (≈ 95.4 µM)	64 (≈ 191 µM)	64 (≈ 191 µM)	32 (≈ 95.4 µM)	32 (≈ 95.4 µM)	32 (≈ 95.4 µM)	64 (≈ 191 µM)	64 (≈ 191 µM)
Nc1ccc(S(=O)(=O)C/C(=N/O)c2nccs2)cc1	128 (≈ 430 µM)	16 (≈ 53.8 µM)	64 (≈ 215 µM)	64 (≈ 215 µM)	128 (≈ 430 µM)	128 (≈ 430 µM)	32 (≈ 108 µM)	64 (≈ 215 µM)	64 (≈ 215 µM)	256 (≈ 861 µM)	128 (≈ 430 µM)
CCCCCCCCO/N=C(/CS(=O)(=O)c1ccc(N)cc1)c1nccs1	64 (≈ 156 µM)	32 (≈ 78.1 µM)	64 (≈ 156 µM)	16 (≈ 39.1 µM)	128 (≈ 313 µM)	32 (≈ 78.1 µM)	32 (≈ 78.1 µM)	32 (≈ 78.1 µM)	32 (≈ 78.1 µM)	64 (≈ 156 µM)	64 (≈ 156 µM)
CC(=O)Nc1ccc(S(=O)(=O)C/C(=N/NC(=O)Cc2ccccc2)c2nccs2)cc1	256 (≈ 561 µM)	32 (≈ 70.1 µM)	256 (≈ 561 µM)	16 (≈ 35 µM)	256 (≈ 561 µM)	64 (≈ 140 µM)	256 (≈ 561 µM)	128 (≈ 280 µM)	64 (≈ 140 µM)	256 (≈ 561 µM)	64 (≈ 140 µM)
CC(=O)Nc1ccc(S(=O)(=O)C/C(=N/O)c2nccs2)cc1	128 (≈ 377 µM)	64 (≈ 189 µM)	64 (≈ 189 µM)	64 (≈ 189 µM)	128 (≈ 377 µM)	64 (≈ 189 µM)	64 (≈ 189 µM)	64 (≈ 189 µM)	128 (≈ 377 µM)	256 (≈ 754 µM)	64 (≈ 189 µM)
CCCCCCCCO/N=C(/CS(=O)(=O)c1ccc(NC(C)=O)cc1)c1nccs1	64 (≈ 142 µM)	16 (≈ 35.4 µM)	64 (≈ 142 µM)	64 (≈ 142 µM)	128 (≈ 283 µM)	64 (≈ 142 µM)	32 (≈ 70.9 µM)	64 (≈ 142 µM)	64 (≈ 142 µM)	128 (≈ 283 µM)	64 (≈ 142 µM)
CC(=O)Nc1ccc(S(=O)(=O)C/C(=N/Nc2ccc(Cl)cc2)c2nccs2)cc1	256 (≈ 570 µM)	128 (≈ 285 µM)	128 (≈ 285 µM)	128 (≈ 285 µM)	128 (≈ 285 µM)	64 (≈ 143 µM)	128 (≈ 285 µM)	256 (≈ 570 µM)	256 (≈ 570 µM)	256 (≈ 570 µM)	256 (≈ 570 µM)
C#CCO/N=C(/CS(=O)(=O)c1ccc(NC(C)=O)cc1)c1nccs1	64 (≈ 170 µM)	16 (≈ 42.4 µM)	64 (≈ 170 µM)	64 (≈ 170 µM)	64 (≈ 170 µM)	64 (≈ 170 µM)	32 (≈ 84.8 µM)	32 (≈ 84.8 µM)	64 (≈ 170 µM)	128 (≈ 339 µM)	32 (≈ 84.8 µM)
CC(=O)Nc1ccc(S(=O)(=O)/C(=C\c2ccc([N+](=O)[O-])cc2)C(=O)c2nccs2)cc1	64 (≈ 140 µM)	64 (≈ 140 µM)	256 (≈ 560 µM)	64 (≈ 140 µM)	256 (≈ 560 µM)	128 (≈ 280 µM)	32 (≈ 69.9 µM)	128 (≈ 280 µM)	256 (≈ 560 µM)	256 (≈ 560 µM)	128 (≈ 280 µM)
Nc1ccc(S(=O)(=O)C/C(=N/OCc2ccc(Cl)cc2Cl)c2nccs2)cc1	64 (≈ 140 µM)	16 (≈ 35.1 µM)	64 (≈ 140 µM)	16 (≈ 35.1 µM)	64 (≈ 140 µM)	16 (≈ 35.1 µM)	32 (≈ 70.1 µM)	32 (≈ 70.1 µM)	64 (≈ 140 µM)	64 (≈ 140 µM)	64 (≈ 140 µM)
CC(=O)Nc1ccc(S(=O)(=O)C/C(=N/Nc2ccc(C(=O)O)cc2)c2nccs2)cc1	128 (≈ 279 µM)	32 (≈ 69.8 µM)	32 (≈ 69.8 µM)	32 (≈ 69.8 µM)	2 (≈ 4.36 µM)	16 (≈ 34.9 µM)	64 (≈ 140 µM)	128 (≈ 279 µM)	32 (≈ 69.8 µM)	64 (≈ 140 µM)	8 (≈ 17.4 µM)
CC(=O)Nc1ccc(S(=O)(=O)/C(=C\c2ccccc2Cl)C(=O)c2nccs2)cc1	256 (≈ 573 µM)	64 (≈ 143 µM)	128 (≈ 286 µM)	32 (≈ 71.6 µM)	32 (≈ 71.6 µM)	16 (≈ 35.8 µM)	16 (≈ 35.8 µM)	16 (≈ 35.8 µM)	64 (≈ 143 µM)	128 (≈ 286 µM)	256 (≈ 573 µM)
